This is an account of results in PubChem BioAssay AID338 (DTP/NCI, 2004).

Values joined by “and” are separate entries in the source; they are usually repeats but may differ in a detail not shown here. Identical values can stand only once. Inconclusive results and toxic doses are left out. *1 amine or outer side, *2 acyl side, *3 side chain or, on linkers, in order; H or OH if unused. Where a SMILES comes first, the peptide text is derived from it. Bridges are numbered along the chain shown (N, C = ends). Roman numbers before positions name the chains, in order. [ ]: non-standard residue; d: D form. Actinocin(9to1) = Cc1c2oc3c(C)ccc(C(=O)[*:1])c3nc-2c(C(=O)[*:2])c(N)c1=O; aThr = C[C@H](O)[C@H](N)C(=O)O; NMeV = CN[C@H](C(=O)O)C(C)C; Sar = CNCC(=O)O

This assay relates to BDF1 mice, P388 leukemia (terephthalanilide-resistant), survival T/C. Nature of the assay: NCI In Vivo Anticancer Drug Screen. Data for tumor model P388 Leukemia resistant to A Terephthalanilide; NSC 38280 (intraperitoneal) in B6D2F1 (BDF1) mice. The following applies: endpoint: median survival time, higher = longer survival. The method, then:
The antitumor activity of compounds was measured in mice bearing transplantable tumors. Survival or tumor size were measured and the results are expressed as the measurement made in the treated group (T) divided by the measurement made in the vehicle treated control group (C). The tumor model used in this assay is P388 Leukemia resistant to A Terephthalanilide; NSC 38280 (intraperitoneal) in B6D2F1 (BDF1) mice

Where [1] appears, read: dose: 1.25 mg/kg/injection, schedule: Q01DX010 (ip), vehicle: saline.
Where [2] appears, read: dose: 2.5 mg/kg/injection, schedule: Q01DX010 (ip), vehicle: saline.
Setting [3] is: dose: 5.0 mg/kg/injection, schedule: Q01DX010 (ip), vehicle: saline.
[4] abbreviates: dose: 10.0 mg/kg/injection, schedule: Q01DX010 (ip), vehicle: saline.
[5] abbreviates: dose: 0.25 mg/kg/injection, schedule: Q01DX010 (ip), vehicle: saline.
Where [6] appears, read: dose: 16.0 mg/kg/injection, schedule: Q01DX010 (ip), vehicle: saline.
The mark [7] stands for this setting: dose: 32.0 mg/kg/injection, schedule: Q01DX010 (ip), vehicle: saline.
Setting [8] is: dose: 6.25 mg/kg/injection, schedule: Q01DX010 (ip), vehicle: saline.
Setting [9] is: dose: 12.5 mg/kg/injection, schedule: Q01DX010 (ip), vehicle: saline.
Setting [10] is: dose: 40.0 mg/kg/injection, schedule: Q01DX010 (ip), vehicle: saline.

On to `Oc1cc(CN(CCCl)CCCl)c(O)cc1CN(CCCl)CCCl`, for which the T/C is, setting by setting: (dose: 0.63 mg/kg/injection, schedule: Q01DX010 (ip), vehicle: saline) 116 % of control; under setting [1], 100 % of control and 116 % of control; under setting [2], 100 % of control and 116 % of control; under setting [3], 100 % of control and 116 % of control; under setting [4], 110 % of control.
On to `CC/C(=C(/CC)c1ccc(O)cc1)c1ccc(O)cc1`, for which the T/C by setting is: (dose: 12.5 mg/kg/injection, schedule: Q01DX010 (sc), vehicle: steriod suspending solution) 90 % of control; (dose: 25.0 mg/kg/injection, schedule: Q01DX010 (sc), vehicle: steriod suspending solution) 90 % of control; (dose: 100.0 mg/kg/injection, schedule: Q01DX010 (sc), vehicle: steriod suspending solution) 90 % of control.
Turning to `CN(C)c1ccc(/C=C\c2ccnc3ccccc23)cc1`, the T/C runs as follows: (dose: 1.5 mg/kg/injection, schedule: Q01DX010 (ip), vehicle: saline) 91 % of control; (dose: 12.0 mg/kg/injection, schedule: Q01DX010 (ip), vehicle: saline) 91 % of control.
Take `COc1cc(-c2ccc(Nc3ccccc3C(=O)O)c(OC)c2)ccc1Nc1ccccc1C(=O)O`: the T/C reads like this: (dose: 67.0 mg/kg/injection, schedule: Q01DX010 (ip), vehicle: saline) 159 % of control; (dose: 100.0 mg/kg/injection, schedule: Q01DX010 (ip), vehicle: saline) 159 % of control.
Consider `C1CN1c1nc(N2CC2)nc(N2CC2)n1`, for which the T/C (dose: 0.13 mg/kg/injection, schedule: Q01DX010 (ip), vehicle: saline) was 94 % of control and 100 % of control; the T/C under setting [5] is 105 % of control and 116 % of control; the T/C (dose: 0.5 mg/kg/injection, schedule: Q01DX010 (ip), vehicle: saline) is 116 % of control; the T/C (dose: 1.0 mg/kg/injection, schedule: Q01DX010 (ip), vehicle: saline) was 111 % of control.
Take `CCCCNc1ncnc2c1cnn2C`: the T/C was 100 % of control (dose: 31.3 mg/kg/injection, schedule: Q01DX010 (ip), vehicle: saline); 95 % of control and 111 % of control (dose: 62.5 mg/kg/injection, schedule: Q01DX010 (ip), vehicle: saline); 88 % of control (dose: 125.0 mg/kg/injection, schedule: Q01DX010 (ip), vehicle: saline).
Consider `Nc1nc(SCc2ccccc2)c2[nH]cnc2n1`, for which the T/C is 105 % of control (dose: 8.0 mg/kg/injection, schedule: Q01DX010 (ip), vehicle: saline); 100 % of control and 105 % of control under setting [6]; 121 % of control under setting [7]; 115 % of control and 122 % of control (dose: 64.0 mg/kg/injection, schedule: Q01DX010 (ip), vehicle: saline).
In the case of `Cc1c2oc3c(C)ccc(C(=O)N[C@@H]4C(=O)N[C@H](C(C)C)C(=O)N5CCC[C@H]5C(=O)N(C)CC(=O)N(C)[C@@H](C(C)C)C(=O)O[C@H]4C)c3nc-2c(C(=O)N[C@@H]2C(=O)N[C@H](C(C)C)C(=O)N3CCC[C@H]3C(=O)N(C)CC(=O)N(C)[C@@H](C(C)C)C(=O)O[C@H]2C)c(N)c1=O` (I: [aThr][dV]P[Sar][NMeV] / II: [aThr][dV]P[Sar][NMeV]; ester I:1-I:C, II:1-II:C; linker I:N-II:N via Actinocin(9to1)), the T/C is 111 % of control and 120 % of control (dose: 12.5 micrograms/kg/injection, schedule: Q01DX010 (ip), vehicle: other); 116 % of control and 120 % of control (dose: 25.0 micrograms/kg/injection, schedule: Q01DX010 (ip), vehicle: other); 120 % of control and 122 % of control (dose: 50.0 micrograms/kg/injection, schedule: Q01DX010 (ip), vehicle: other); 115 % of control and 122 % of control (dose: 100.0 micrograms/kg/injection, schedule: Q01DX010 (ip), vehicle: other).
`O=NN(CCCl)C(=O)NCCCl`: the T/C runs as follows: under setting [8], 225 % of control and 245 % of control; under setting [9], 215 % of control and 300 % of control; (dose: 25.0 mg/kg/injection, schedule: Q01DX010 (ip), vehicle: saline) 110 % of control.
`CC[C@]1(O)C[C@H]2CN(CCc3c([nH]c4ccccc34)[C@@](C(=O)OC)(c3cc4c(cc3OC)N(C=O)[C@H]3[C@@](O)(C(=O)OC)[C@H](OC(C)=O)[C@]5(CC)C=CCN6CC[C@]43[C@@H]65)C2)C1`: the T/C was 105 % of control (dose: 0.03 mg/kg/injection, schedule: Q01DX010 (ip), vehicle: saline); 90 % of control and 100 % of control (dose: 0.03 mg/kg/injection, schedule: Q01DX Z (ip), vehicle: saline); 100 % of control (dose: 0.06 mg/kg/injection, schedule: Q01DX010 (ip), vehicle: saline); 95 % of control (dose: 0.06 mg/kg/injection, schedule: Q01DX Z (ip), vehicle: saline); 111 % of control (dose: 0.12 mg/kg/injection, schedule: Q01DX010 (ip), vehicle: saline); 100 % of control (dose: 0.13 mg/kg/injection, schedule: Q01DX Z (ip), vehicle: saline). The T/C is 94 % of control under setting [5]; 100 % of control (dose: 0.25 mg/kg/injection, schedule: Q01DX Z (ip), vehicle: saline); 95 % of control and 100 % of control (dose: 0.5 mg/kg/injection, schedule: Q01DX Z (ip), vehicle: saline).
For `CCCCn1cnc2c(=S)nc[nH]c21`, the T/C is 86 % of control under setting [6] and 90 % of control under setting [7].
For the molecule `O=C(O)CCCc1ccc(N(CCCl)CCCl)cc1`, the T/C reads like this: (dose: 3.13 mg/kg/injection, schedule: Q01DX010 (ip), vehicle: saline) 100 % of control and 105 % of control; under setting [8], 110 % of control and 116 % of control; under setting [9], 105 % of control and 120 % of control.
Take `N#[N+]c1cnc([O-])[nH]c1=O`: the T/C was 113 % of control under setting [1]; 113 % of control under setting [2]; 95 % of control and 122 % of control under setting [3].
`Cc1cc(N(CCCl)CCCl)ccc1N=Nc1ccccc1C(=O)O`: the T/C under setting [3] was 116 % of control and the T/C under setting [10] is 100 % of control.
In the case of `C[C@@H]1C[C@@H]([C@H](O)CC2CC(=O)NC(=O)C2)C(=O)[C@@H](C)C1`, the T/C is, setting by setting: under setting [3], 93 % of control and 100 % of control; under setting [4], 100 % of control; (dose: 20.0 mg/kg/injection, schedule: Q01DX010 (ip), vehicle: saline) 100 % of control; under setting [10], 112 % of control.
`O=C(Nc1ccc(C2=NCCN2)cc1)c1cc(C(=O)Nc2ccc(C3=NCCN3)cc2)cc([N+](=O)[O-])c1`: the T/C (dose: 167.0 mg/kg/injection, schedule: Q01DX010 (ip), vehicle: saline) was 94 % of control; the T/C (dose: 250.0 mg/kg/injection, schedule: Q01DX010 (ip), vehicle: saline) is 100 % of control; the T/C (dose: 375.0 mg/kg/injection, schedule: Q01DX010 (ip), vehicle: saline) is 94 % of control; the T/C (dose: 512.0 mg/kg/injection, schedule: Q01DX010 (ip), vehicle: saline) is 94 % of control.
Consider `CN=C(NC)c1ccc(NC(=O)c2ccc(C(=O)Nc3ccc(C(=NC)NC)cc3)c(Cl)c2)cc1`, for which the T/C is, setting by setting: (dose: 18.0 mg/kg/injection, schedule: Q01DX010 (ip), vehicle: saline) 105 % of control; (dose: 27.0 mg/kg/injection, schedule: Q01DX010 (ip), vehicle: saline) 100 % of control.
